Measurements published in patent US9296769B2, “Tenofovir alafenamide hemifumarate” (Gilead Sciences, Inc., priority 2011, dated 2016).
Read-outs that look alike come from different tables or passages of the source.

Legend:
[1] = for Thermodynamic stability: solvents such as ACN, toluene, MTBE, acetone, THF, 2-methyl THF
[2] = From the text: Chemical stability of the hemifumarate form of tenofovir alafenamide was compared with the monofumarate form. […] Conditions evaluated include temperature, relative humidity (RH), and the open or closed state of the container cap.
[3] = remark: listed apart in the source
Procedure: DVS analysis was conducted using 4.951 mg of tenofovir alafenamide hemifumarate. The material was kept at 25° C. in nitrogen at humidities ranging from 10% to 90% relative humidity; each step was equilibrated for 120 minutes.

[4] = 40° C./75% RH Cap Closed, 0 weeks
[5] = 40° C./75% RH Cap Closed, 1 week
[6] = 40° C./75% RH Cap Closed, 2 weeks
[7] = 40° C./75% RH Cap Closed, 4 weeks
[8] = 40° C./75% RH Cap Closed, 8 weeks
[9] = 40° C./75% RH Cap Open, 0 weeks
[10] = 40° C./75% RH Cap Open, 2 weeks
[11] = 40° C./75% RH Cap Open, 4 weeks
[12] = 40° C./75% RH Cap Open, 8 weeks

Row | SMILES | % TA Area Normalized [2, 4] [%] | % Total Deg. Products [2, 4] [%] | % TA Area Normalized [2, 5] [%] | % Total Deg. Products [2, 5] [%] | % TA Area Normalized [2, 6] [%] | % Total Deg. Products [2, 6] [%] | % TA Area Normalized [2, 7] [%] | % Total Deg. Products [2, 7] [%] | % TA Area Normalized [2, 8] [%] | % Total Deg. Products [2, 8] [%] | % TA Area Normalized [2, 9] [%] | % Total Deg. Products [2, 9] [%] | % TA Area Normalized ([2]; 40° C./75% RH Cap Open, 1 week) [%] | % Total Deg. Products ([2]; 40° C./75% RH Cap Open, 1 week) [%] | % TA Area Normalized [2, 10] [%] | % Total Deg. Products [2, 10] [%] | % TA Area Normalized [2, 11] [%] | % Total Deg. Products [2, 11] [%] | % TA Area Normalized [2, 12] [%] | % Total Deg. Products [2, 12] [%] | also measured
1 | CC(C)OC(=O)[C@H](C)N[P@](=O)(CO[C@H](C)Cn1cnc2c(N)ncnc21)Oc1ccccc1 [Monofumarate form, 9-[(R)-2-[[(S)-[[(S)-1-(isopropoxycarbonyl)ethyl]amino]phenoxyphosphinyl]methoxy]propyl]adenine] | 97.1 | 0.69 | 97.0 | 0.87 | 96.6 | 1.18 | 96.4 | 1.49 | 95.4 | 2.36 | 97.1 | 0.69 | 96.9 | 0.90 | 96.6 | 1.10 | 96.2 | 1.67 | 95.0 | 2.74 | Form conversion when suspended in solvent ([1]; ACN, ethyl acetate, MTBE and acetone): partially converts to the hemifumarate form; Form conversion when suspended in solvent ([1]; THF and 2-methyl THF): fully converts to the hemifumarate form; Thermodynamic stability ([1]; ethyl acetate): not thermodynamically stable; % TA Area Normalized ([2]; 70° C. Cap Closed, 0 weeks): 97.1%; % Total Deg. Products ([2]; 70° C. Cap Closed, 0 weeks): 0.69%; % TA Area Normalized ([2]; 70° C. Cap Closed, 2 weeks): 96.2%; % Total Deg. Products ([2]; 70° C. Cap Closed, 2 weeks): 1.83%; % TA Area Normalized ([2]; 70° C. Cap Closed, 4 weeks): 93.3%; % Total Deg. Products ([2]; 70° C. Cap Closed, 4 weeks): 4.78%
2 | CC(C)OC(=O)[C@H](C)N[P@](=O)(CO[C@H](C)Cn1cnc2c(N)ncnc21)Oc1ccccc1 [Hemifumarate form, 9-[(R)-2-[[(S)-[[(S)-1-(isopropoxycarbonyl)ethyl]amino]phenoxyphosphinyl]methoxy]propyl]adenine] | 98.4 | 0.05 | 98.4 | 0.14 | 98.5 | 0.14 | 98.4 | 0.25 | 98.0 | 0.49 | 98.4 | 0.05 | 98.5 | 0.15 | 98.5 | 0.14 | 98.4 | 0.26 | 98.1 | 0.50 | Thermodynamic stability ([1]; ethyl acetate, listed as tenofovir alafenamide hemifumarate): thermodynamically stable in most solvents; Hygroscopicity ([3]; 25° C. in nitrogen, 10% to 90% relative humidity): nonhygroscopic; Water absorbed ([3]; 25° C., relative humidity of 90%): 0.65%; % TA Area Normalized ([2]; 70° C. Cap Closed, 0 weeks): 98.4%; % Total Deg. Products ([2]; 70° C. Cap Closed, 0 weeks): 0.05%; % TA Area Normalized ([2]; 70° C. Cap Closed, 2 weeks): 98.5%; % Total Deg. Products ([2]; 70° C. Cap Closed, 2 weeks): 0.22%; % TA Area Normalized ([2]; 70° C. Cap Closed, 4 weeks): 98.4%; % Total Deg. Products ([2]; 70° C. Cap Closed, 4 weeks): 0.33%
